Values quoted from earlier work, collected in patent publication US20050221347A1, “Inhibitors of binding between proteins and macromolecular ligands” (Thrasos, Inc., priority 1999, published 2005).

Molecular target: alpha subunit of the interleukin-2 receptor (Homo sapiens, UniProt P60568)
Sequence (P60568 21-153): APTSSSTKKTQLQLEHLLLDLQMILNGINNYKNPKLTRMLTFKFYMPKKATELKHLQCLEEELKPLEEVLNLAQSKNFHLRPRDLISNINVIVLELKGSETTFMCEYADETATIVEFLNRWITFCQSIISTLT

Kd (binding to the alpha subunit of the interleukin-2 receptor, described in Tilley et al., J. Am. Chem. Soc 119:7589 (1997)): ~3 µM | inhibition of binding of interleukin 2 to the interleukin-2 receptor (result in words, Tilley et al. 1997): inhibits the binding of interleukin 2
Compound: COC(=O)[C@H](Cc1ccc(C#Cc2ccccc2)cc1)NC(=O)C[C@H]1CCCN(C(=N)N)C1 [Structural Formula (I)]
